This passage reports IC50 results from patent US20240285621A1, “PYRAZOLYL-PYRIMIDINE DERIVATIVES AS KINASE INHIBITORS” (NERVIANO MEDICAL SCIENCES S.R.L., priority 2020, published 2024).

By IC50 is commonly meant the concentration needed to halve the response being measured.

Experiment [1] concerns the target T1, SYK (Homo sapiens, UniProt P43405).
T1 construct: Recombinant proteins SYK FL was produced at NMS via baculo virus infection in insect cells; His; GST; made in house; host or cells: insect cells (baculovirus)
Description: Biochemical kinase inhibition assay on SYK, ADPGlo assay format. The settings on record: Table A, pre-activated SYK 0.6 nM, ATP 60 μM, BioDBn*327 125 μM, 60 minutes at room temperature.

The target in experiment [2] is T1, SYK. Description: Biochemical kinase inhibition assay on SYK, KinaseGlo assay format. The settings on record: Table A; KinaseGlo format, pre-activated SYK 2.5 nM, ATP 2.5 μM, substrate BioDBn*327 125 uM, 60 minutes at rt; read-out: IC50 (μM) Kglo.

Turning to `COc1cc(F)cc(Nc2nccc(-c3cc(C(=O)N[C@@H](C)CN(C)C)n(C)n3)n2)c1` [Example 65, N-[(2S)-1-(dimethylamino)propan-2-yl]-3-{2-[(3-fluoro-5-methoxyphenyl)amino]pyrimidin-4-yl}-1-methyl-1H-pyrazole-5-carboxamide], the IC50 is 0.038 µM in experiment [1] and 0.009 µM in experiment [2].
Regarding `COc1cc(Nc2nccc(-c3cc(C(=O)N[C@@H](C)CN(C)C)n(C)n3)n2)cc(OC)c1` [Example 67, 3-{2-[(3,5-dimethoxyphenyl)amino]pyrimidin-4-yl}-N-[(2S)-1-(dimethylamino)propan-2-yl]-1-methyl-1H-pyrazole-5-carboxamide], the IC50 in experiment [1] was 0.014 µM; in experiment [2], less than 0.004 µM.
`COc1cc(Nc2nccc(-c3cc(C(=O)N[C@@H](C)CN4CCCC4)n(C)n3)n2)cc(OC)c1` [Example 69, 3-{2-[(3,5-dimethoxyphenyl)amino]pyrimidin-4-yl}-1-methyl-N-[(2S)-1-(pyrrolidin-1-yl)propan-2-yl]-1H-pyrazole-5-carboxamide]: the IC50 in experiment [1] is 0.01 µM; in experiment [2], 0.008 µM.
In the case of `COc1cc(Nc2nccc(-c3cc(C(=O)NCCN(C)C)n(C)n3)n2)cc(OC)c1` [Example 72, 3-{2-[(3,5-dimethoxyphenyl)amino]pyrimidin-4-yl}-N-[2-(dimethylamino)ethyl]-1-methyl-1H-pyrazole-5-carboxamide], the results for the IC50 in experiment [1] and in experiment [2] were 0.087 µM and 0.034 µM, respectively.
Regarding `C[C@@H](CN(C)C)NC(=O)c1cc(-c2ccnc(Nc3cnn(C)c3)n2)nn1C` [Example 75, N-[(2S)-1-(dimethylamino)propan-2-yl]-1-methyl-3-{2-[(1-methyl-1H-pyrazol-4-yl)amino]pyrimidin-4-yl}-1H-pyrazole-5-carboxamide], the IC50 in experiment [1] worked out at 0.473 µM; in experiment [2], 0.273 µM.
With `COc1cc(C#N)cc(Nc2nccc(-c3cc(C(=O)N[C@@H](C)CN(C)C)n(C)n3)n2)c1` [Example 78, 3-{2-[(3-cyano-5-methoxyphenyl)amino]pyrimidin-4-yl}-N-[(2S)-1-(dimethylamino)propan-2-yl]-1-methyl-1H-pyrazole-5-carboxamide], the values for the IC50 in experiment [1] and in experiment [2] were 0.033 µM and 0.015 µM, respectively.
`COc1cc(C#N)cc(Nc2nccc(-c3cc(C(=O)N[C@@H](C)CN4CCC4)n(C)n3)n2)c1` [Example 79, N-[(2S)-1-(azetidin-1-yl)propan-2-yl]-3-{2-[(3-cyano-5-methoxyphenyl)amino]pyrimidin-4-yl}-1-methyl-1H-pyrazole-5-carboxamide]: the half-maximal inhibitory concentration (IC50) was found to be 0.026 µM in experiment [1] and 0.007 µM in experiment [2].
Take `COc1cncc(Nc2nccc(-c3cc(C(=O)N[C@@H](C)CN4CCC4)n(C)n3)n2)c1` [Example 80, N-[(2S)-1-(azetidin-1-yl)propan-2-yl]-3-{2-[(5-methoxypyridin-3-yl)amino]pyrimidin-4-yl}-1-methyl-1H-pyrazole-5-carboxamide]: the IC50 in experiment [1] came to 0.081 µM; in experiment [2], 0.044 µM.
